From ChEMBL document CHEMBL1124129, “Binding of steroids to the progestin and glucocorticoid receptors analyzed by correspondence analysis” (J Med Chem, 1988)

Molecular target: T1, Glucocorticoid receptor (Rattus norvegicus) (UniProt P06536)
T1 sequence (whole entry): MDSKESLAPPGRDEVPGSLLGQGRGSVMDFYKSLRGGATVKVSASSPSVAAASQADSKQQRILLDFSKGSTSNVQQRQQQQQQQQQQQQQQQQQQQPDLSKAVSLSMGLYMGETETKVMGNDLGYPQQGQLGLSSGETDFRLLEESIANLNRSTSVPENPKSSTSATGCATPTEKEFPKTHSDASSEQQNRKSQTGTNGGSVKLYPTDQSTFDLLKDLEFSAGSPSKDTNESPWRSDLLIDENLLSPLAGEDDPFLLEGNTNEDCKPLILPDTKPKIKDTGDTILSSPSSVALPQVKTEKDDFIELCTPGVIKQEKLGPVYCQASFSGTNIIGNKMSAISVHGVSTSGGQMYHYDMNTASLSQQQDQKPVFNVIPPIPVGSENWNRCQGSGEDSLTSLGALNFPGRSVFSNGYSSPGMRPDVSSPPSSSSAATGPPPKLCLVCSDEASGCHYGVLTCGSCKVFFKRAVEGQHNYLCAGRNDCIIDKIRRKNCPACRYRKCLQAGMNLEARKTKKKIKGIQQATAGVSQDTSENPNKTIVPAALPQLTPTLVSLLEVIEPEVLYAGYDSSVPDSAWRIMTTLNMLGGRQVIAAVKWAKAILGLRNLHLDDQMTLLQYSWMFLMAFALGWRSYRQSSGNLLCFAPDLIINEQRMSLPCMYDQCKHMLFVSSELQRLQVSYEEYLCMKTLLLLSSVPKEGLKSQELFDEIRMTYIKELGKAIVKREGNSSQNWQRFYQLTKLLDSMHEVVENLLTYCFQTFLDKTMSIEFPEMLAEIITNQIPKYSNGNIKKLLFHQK
Assay: Relative binding affinity to glucocorticoid receptor on cytosol fromt hymus at 4 hr

CC#C[C@]1(O)CCC2C3CCC4=CC(=O)CCC4=C3C(c3cccs3)CC21C (stereo partly specified)
RBA: 270
